Earlier results as cited in paper PMC8113538, “Acute toxicity analysis of an inhibitor of BCL2, Disarib, in rats” (Scientific Reports, 2021).
Like-named read-outs stand apart in the source and are kept apart here.

Assays:
[1] = set-up: method as in EMA Venclyxto public assessment report, 16; conditions: dogs; ref EMA Venclyxto public assessment report, 16; cited from earlier work
[2] = cited from earlier work
[3] = set-up: method as in EMA Venclyxto public assessment report, 16; conditions: monkey; ref EMA Venclyxto public assessment report, 16; cited from earlier work
[4] = tested on: platelets; set-up: method as in PMID 26589495; conditions: clinical trials; cited from earlier work
[5] = cited from earlier work; for solubility in organic solvents: DMSO and Dimethylformamide
[6] = tested on: circulating platelets; set-up: method as in PMID 26589495, PMID 21094089, PMID 17205078; conditions: preclinical studies; cited from earlier work
[7] = rats; cited from earlier work

Row | SMILES | half life [1] [h] | oral bioavailability (in words) [2] | half life [3] [h] | toxic effect on platelets [4] | solubility in organic solvents [5] | solubility in absolute ethanol [5] | solubility in aqueous buffers [5] | plasma clearance [2] | number of circulating platelets [6] | bioavailability [7]
1 | CC1(C)CCC(CN2CCN(c3ccc(C(=O)NS(=O)(=O)c4ccc(NCC5CCOCC5)c([N+](=O)[O-])c4)c(Oc4cnc5[nH]ccc5c4)c3)CC2)=C(c2ccc(Cl)cc2)C1 [ABT199] | 12 | orally bioavailable | 2.2 | no toxic effect on platelets | showed solubility in organic solvents such as DMSO and Dimethylformamide | soluble in absolute ethanol | minimal | – | – | –
2 | CC1(C)CCC(c2ccc(Cl)cc2)=C(CN2CCN(c3ccc(C(=O)NS(=O)(=O)c4ccc(N[C@H](CCN5CCOCC5)CSc5ccccc5)c(S(=O)(=O)C(F)(F)F)c4)cc3)CC2)C1 [ABT263] | – | orally bioavailable | – | – | showed solubility in organic solvents such as DMSO and Dimethylformamide | soluble in absolute ethanol | minimal | low plasma clearance value | rapid and concentration-dependent decrease in the number of circulating platelets | ~ 20%
3 | CN(C)CC[C@H](CSc1ccccc1)Nc1ccc(S(=O)(=O)NC(=O)c2ccc(N3CCN(Cc4ccccc4-c4ccc(Cl)cc4)CC3)cc2)cc1[N+](=O)[O-] [ABT737] | – | not orally bioavailable | – | – | showed solubility in organic solvents such as DMSO and Dimethylformamide | – | minimal | low plasma clearance value | rapid and concentration-dependent decrease in the number of circulating platelets | –
